Measurements taken from patent US20250248973A1, “CANNABINOID RECEPTOR 1 ANTAGONISTS/INVERSE AGONISTS AND USES THEREOF” (Corbus Pharmaceuticals, Inc., priority 2022, published 2025).

How the values were obtained:
[1] = molecular target: Human CB1 Receptor-1 (hCB1) (Homo sapiens (Human), UniProt P21554); assay: hCB1 Gai cyclic AMP (cAMP) TR-FRET assay, antagonism of EC80 CP55940 with forskolin; type: cell-based; conditions: hCB1 cells, 30 min pre-incubation
Method: (§1) Example 3. Biochemical Methods Human CB1 Receptor-1 (hCB1) and Human CB1 Receptor-1b (hCBib)
(§2) hCB1/hCB1 b Gai Cyclic AMP (cAMP) Assays: Cells were seeded in a 384-well plate at an appropriate density from frozen cells. The cAMP assays were performed according to the manufacturer's protocol using MULTISCREEN™ TR-FRET cAMP 1.0 No Wash Assay Kit. Cells (hCB1 or hCB1 b) were pre-incubated with customer compounds for 30 minutes at rt followed by addition of EC80 CP55940 concentration and Forskolin. Cells were then incubated for 20 minutes at 37C. The reaction was terminated by sequentially adding sequentially adding MULTISCREEN™ Eu-labeled cAMP and MULTISCREEN™ 650-labeled anti-cAMP antibody in lysis buffer. The plate was then incubated at rt for 30 minutes before reading fluorescent emissions at 620 nm and 665 with excitation at 314 nm on FlexStation III (Molecular Devices). The results are shown in Table 2 (“***” denotes an IC50<100 nM; “**” denotes an IC50 between 100 nM and 500 nM, and “*” denotes an IC50>500 nM).

[2] = molecular target: Human CB1 Receptor-1b (hCB1b) (Homo sapiens (Human), UniProt P21554); assay: hCB1b Gai cyclic AMP (cAMP) TR-FRET assay, antagonism of EC80 CP55940 with forskolin; type: cell-based; conditions: hCB1b cells, 30 min pre-incubation, read-out: CB1b IC50
Human CB1 Receptor-1b (hCB1b), sequence (P21554 other isoform, or with tags, fused parts or gaps): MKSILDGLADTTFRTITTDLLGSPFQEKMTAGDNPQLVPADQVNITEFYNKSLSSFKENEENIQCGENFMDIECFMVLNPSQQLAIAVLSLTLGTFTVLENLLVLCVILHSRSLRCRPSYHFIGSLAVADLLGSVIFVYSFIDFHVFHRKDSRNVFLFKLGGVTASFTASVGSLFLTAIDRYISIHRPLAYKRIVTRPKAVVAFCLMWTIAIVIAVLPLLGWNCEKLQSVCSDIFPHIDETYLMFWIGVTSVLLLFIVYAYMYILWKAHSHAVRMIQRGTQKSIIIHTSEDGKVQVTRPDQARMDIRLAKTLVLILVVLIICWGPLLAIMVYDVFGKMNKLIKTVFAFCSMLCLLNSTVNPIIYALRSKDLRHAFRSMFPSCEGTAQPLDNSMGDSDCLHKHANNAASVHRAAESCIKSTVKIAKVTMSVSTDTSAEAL
Method: as §1, §2

Human CB1 Receptor-1 (hCB1), sequence (P21554 whole entry): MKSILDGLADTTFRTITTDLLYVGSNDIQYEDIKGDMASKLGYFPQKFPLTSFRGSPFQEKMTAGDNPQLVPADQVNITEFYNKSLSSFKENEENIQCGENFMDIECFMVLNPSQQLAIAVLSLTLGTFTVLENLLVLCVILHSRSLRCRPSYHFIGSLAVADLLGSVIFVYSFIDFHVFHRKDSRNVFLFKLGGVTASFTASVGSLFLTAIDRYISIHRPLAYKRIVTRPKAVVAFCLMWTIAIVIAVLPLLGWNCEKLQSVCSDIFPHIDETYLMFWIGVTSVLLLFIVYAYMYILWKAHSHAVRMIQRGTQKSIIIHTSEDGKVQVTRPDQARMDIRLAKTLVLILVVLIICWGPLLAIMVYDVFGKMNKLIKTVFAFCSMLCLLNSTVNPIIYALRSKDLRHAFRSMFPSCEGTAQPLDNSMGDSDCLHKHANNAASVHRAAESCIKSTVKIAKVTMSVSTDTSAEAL

IC50 [1] [µM] | IC50 [2] [µM] | Structure (SMILES)
< 0.1 | < 0.1 | NS(=O)(=O)CCNC(=NS(=O)(=O)c1cccc(C(F)(F)F)c1)N1C[C@H](c2ccccc2)C(c2ccc(Cl)cc2)=N1 [Compound 27, (S)-3-(4-chlorophenyl)-4-phenyl-N-(2-sulfamoylethyl)-N′-((3-(trifluoromethyl)phenyl)sulfonyl)-4,5-dihydro-1H-pyrazole-1-carboximidamide]
< 0.1 | < 0.1 | NS(=O)(=O)CCNC(=NS(=O)(=O)c1cccnc1)N1C[C@H](c2ccccc2)C(c2ccc(Cl)cc2)=N1 [Compound 65, (S)-3-(4-chlorophenyl)-4-phenyl-N′-(pyridin-3-ylsulfonyl)-N-(2-sulfamoylethyl)-4,5-dihydro-1H-pyrazole-1-carboximidamide]
> 0.5 | > 0.5 | C[C@H](CS(N)(=O)=O)N/C(=N\S(=O)(=O)c1ccc(Cl)cc1)N1C[C@H](c2ccccc2)C(c2ccc(F)cc2)=N1 [Compound 57, (S,E)-N′-((4-chlorophenyl)sulfonyl)-3-(4-fluorophenyl)-4-phenyl-N-((R)-1-sulfamoylpropan-2-yl)-4,5-dihydro-1H-pyrazole-1-carboximidamide]
0.1 to 0.5 | < 0.1 | NS(=O)(=O)NC1(CN/C(=N\S(=O)(=O)c2ccc(C(F)(F)F)cc2)N2C[C@H](c3ccccc3)C(c3ccc(Cl)cc3)=N2)CC1 [Compound 235, (S,E)-3-(4-chlorophenyl)-4-phenyl-N-((1-(sulfamoylamino)cyclopropyl)methyl)-N′-((4-(trifluoromethyl)phenyl)sulfonyl)-4,5-dihydro-1H-pyrazole-1-carboximidamide]
> 0.5 | > 0.5 | CN(CCS(N)(=O)=O)/C(=N/S(=O)(=O)c1ccc(Cl)cc1)N1C[C@H](c2ccccc2)C(c2ccc(Cl)cc2)=N1 [Compound 109, (S,Z)-3-(4-chlorophenyl)-N′-((4-chlorophenyl)sulfonyl)-N-methyl-4-phenyl-N-(2-sulfamoylethyl)-4,5-dihydro-1H-pyrazole-1-carboximidamide]
0.1 to 0.5 | 0.1 to 0.5 | NS(=O)(=O)[C@H]1C[C@H](N/C(=N/S(=O)(=O)c2ccc(Cl)cc2)N2C[C@H](c3ccccc3)C(c3ccc(F)cc3)=N2)C1 (single isomer, unassigned) [Compound 127]
0.1 to 0.5 | 0.1 to 0.5 | NS(=O)(=O)CCNC(=NS(=O)(=O)c1ccc(F)cc1)N1C[C@H](c2ccccc2)C(c2ccc(F)cc2)=N1 [Compound 51, (S)-3-(4-fluorophenyl)-N′-((4-fluorophenyl)sulfonyl)-4-phenyl-N-(2-sulfamoylethyl)-4,5-dihydro-1H-pyrazole-1-carboximidamide]
< 0.1 | < 0.1 | C[C@@H](CN/C(=N\S(=O)(=O)c1ccc(C(F)(F)F)cc1)N1C[C@H](c2ccccc2)C(c2ccc(F)cc2)=N1)S(N)(=O)=O (single isomer, unassigned) [Compound 48]
0.1 to 0.5 | < 0.1 | NS(=O)(=O)[C@H]1CC[C@H](N/C(=N/S(=O)(=O)c2ccc(Cl)cc2)N2C[C@H](c3ccccc3)C(c3ccc(F)cc3)=N2)C1 [Compound 151, (S,Z)-N′-((4-chlorophenyl)sulfonyl)-3-(4-fluorophenyl)-4-phenyl-N-((1S,3S)-3-sulfamoylcyclopentyl)-4,5-dihydro-1H-pyrazole-1-carboximidamide]
< 0.1 | < 0.1 | CN(C)S(=O)(=O)CCN/C(=N\S(=O)(=O)c1ccc(Cl)cc1)N1C[C@H](c2ccccc2)C(c2ccc(Cl)cc2)=N1 [Compound 155, (S,E)-3-(4-chlorophenyl)-N′-((4-chlorophenyl)sulfonyl)-N-(2-(N,N-dimethylsulfamoyl)ethyl)-4-phenyl-4,5-dihydro-1H-pyrazole-1-carboximidamide]
0.1 to 0.5 | < 0.1 | NS(=O)(=O)N[C@H]1C[C@H](N/C(=N\S(=O)(=O)c2ccc(Cl)cc2)N2C[C@H](c3ccccc3)C(c3ccc(Cl)cc3)=N2)C1 (single isomer, unassigned) [Compound 241]
> 0.5 | > 0.5 | NS(=O)(=O)[C@H]1CCN(/C(=N/S(=O)(=O)c2ccc(Cl)cc2)N2C[C@H](c3ccccc3)C(c3ccc(Cl)cc3)=N2)C1 (single isomer, unassigned) [Compound 135]
0.1 to 0.5 | < 0.1 | C[C@@H](CN/C(=N\S(=O)(=O)c1ccc(Cl)cc1)N1C[C@H](c2ccccc2)C(c2ccc(Cl)cc2)=N1)S(N)(=O)=O [Compound 6, (S,E)-3-(4-chlorophenyl)-N′-((4-chlorophenyl)sulfonyl)-4-phenyl-N-((S)-2-sulfamoylpropyl)-4,5-dihydro-1H-pyrazole-1-carboximidamide]
0.1 to 0.5 | 0.1 to 0.5 | NS(=O)(=O)[C@@H]1CC[C@@H](N/C(=N/S(=O)(=O)c2ccc(Cl)cc2)N2C[C@H](c3ccccc3)C(c3ccc(Cl)cc3)=N2)C1 (single isomer, unassigned) [Compound 141]
< 0.1 | < 0.1 | NS(=O)(=O)CCN/C(=N\S(=O)(=O)c1ccc(F)cc1)N1C[C@H](c2ccccc2)C(c2ccc(Cl)cc2)=N1 [Compound 11, (S,E)-3-(4-chlorophenyl)-N′-((4-fluorophenyl)sulfonyl)-4-phenyl-N-(2-sulfamoylethyl)-4,5-dihydro-1H-pyrazole-1-carboximidamide]
0.1 to 0.5 | 0.1 to 0.5 | CN(CCNC(=NS(=O)(=O)c1ccc(Cl)cc1)N1C[C@H](c2ccccc2)C(c2ccc(Cl)cc2)=N1)S(N)(=O)=O [Compound 187, (S,E)-3-(4-chlorophenyl)-N′-((4-chlorophenyl)sulfonyl)-N-(2-(methyl(sulfamoyl)amino)ethyl)-4-phenyl-4,5-dihydro-1H-pyrazole-1-carboximidamide]
< 0.1 | < 0.1 | CN(C)S(=O)(=O)CCN/C(=N\S(=O)(=O)c1ccc(F)cc1)N1C[C@H](c2ccccc2)C(c2ccc(F)cc2)=N1 [Compound 167, (S,E)-N-(2-(N,N-dimethylsulfamoyl)ethyl)-3-(4-fluorophenyl)-N′-((4-fluorophenyl)sulfonyl)-4-phenyl-4,5-dihydro-1H-pyrazole-1-carboximidamide]
> 0.5 | 0.1 to 0.5 | C[C@H](CS(N)(=O)=O)N/C(=N\S(=O)(=O)c1ccc(Cl)cc1)N1CC(c2ccccc2)C(c2ccc(Cl)cc2)=N1 (stereo in doubt) [Compound 3, (R,E)-3-(4-chlorophenyl)-N′-((4-chlorophenyl)sulfonyl)-4-phenyl-N-((R)-1-sulfamoylpropan-2-yl)-4,5-dihydro-1H-pyrazole-1-carboximidamide]
< 0.1 | < 0.1 | C[C@H](CN/C(=N\S(=O)(=O)c1ccc(F)cc1)N1C[C@H](c2ccccc2)C(c2ccc(Cl)cc2)=N1)S(N)(=O)=O [Compound 14, (S,E)-3-(4-chlorophenyl)-N′-((4-fluorophenyl)sulfonyl)-4-phenyl-N-((R)-2-sulfamoylpropyl)-4,5-dihydro-1H-pyrazole-1-carboximidamide]
< 0.1 | < 0.1 | CNS(=O)(=O)CCN/C(=N\S(=O)(=O)c1ccc(Cl)cc1)N1C[C@H](c2ccccc2)C(c2ccc(Cl)cc2)=N1 [Compound 169, (S,E)-3-(4-chlorophenyl)-N′-((4-chlorophenyl)sulfonyl)-N-(2-(N-methylsulfamoyl)ethyl)-4-phenyl-4,5-dihydro-1H-pyrazole-1-carboximidamide]
0.1 to 0.5 | < 0.1 | C#Cc1ccc(S(=O)(=O)N=C(NCCS(N)(=O)=O)N2C[C@H](c3ccccc3)C(c3ccc(F)cc3)=N2)cc1 [Compound 59, (S)-N′-((4-ethynylphenyl)sulfonyl)-3-(4-fluorophenyl)-4-phenyl-N-(2-sulfamoylethyl)-4,5-dihydro-1H-pyrazole-1-carboximidamide]
< 0.1 | < 0.1 | NS(=O)(=O)[C@@H]1CC[C@H](N/C(=N/S(=O)(=O)c2ccc(Cl)cc2)N2C[C@H](c3ccccc3)C(c3ccc(Cl)cc3)=N2)C1 [Compound 143, (S,Z)-3-(4-chlorophenyl)-N′-((4-chlorophenyl)sulfonyl)-4-phenyl-N-((1S,3R)-3-sulfamoylcyclopentyl)-4,5-dihydro-1H-pyrazole-1-carboximidamide]
< 0.1 | < 0.1 | NS(=O)(=O)NCCN/C(=N\S(=O)(=O)c1ccc(Cl)cc1)N1C[C@H](c2ccccc2)C(c2ccc(Cl)cc2)=N1 [Compound 183, (S,E)-3-(4-chlorophenyl)-N′-((4-chlorophenyl)sulfonyl)-4-phenyl-N-(2-(sulfamoylamino)ethyl)-4,5-dihydro-1H-pyrazole-1-carboximidamide]
0.1 to 0.5 | 0.1 to 0.5 | NS(=O)(=O)[C@H]1CC[C@H](N/C(=N/S(=O)(=O)c2ccc(Cl)cc2)N2C[C@H](c3ccccc3)C(c3ccc(Cl)cc3)=N2)C1 (single isomer, unassigned) [Compound 139]
> 0.5 | > 0.5 | NS(=O)(=O)[C@H]1C[C@@H](N/C(=N/S(=O)(=O)c2ccc(Cl)cc2)N2C[C@H](c3ccccc3)C(c3ccc(F)cc3)=N2)C1 (single isomer, unassigned) [Compound 129]
